US12472185B2, “Methods for killing antibiotic tolerant bacteria” (THE PENN STATE RESEARCH FOUNDATION, priority 2020, dated 2025)

How the values were obtained:
[1] = system: S. aureus exponentially-growing cells; experiment: Killing at one MIC in PBS, NPIMA compared with cisplatin; type: cell-based, Staphylococcus aureus; conditions: 3 hr
Text: FIG. 7. NPIMA compared width cisplatin for killing Pseudomonas aeruginosa, Escherichia coli, and Staphylococcus aureus. Survival of exponentially-growing cells of P. aeruginosa PA14 (a), E. coli (b), and S. aureus (c) treated with one MIC of NPIMA (♦) and cisplatin (●) for 3 hr in PBS. DMSO (▴) and NaClO4 (*) were used as a negative controls. MIC, minimum inhibitory concentration; NPIMA, 5-nitro-3-phenyl-1H-indol-2-yl-methylamine hydrochloride.
(§1) For bacterial viability, cells were washed twice with 0.85% NaCl, resuspended in 1×PBS, and cell counts were determined via the drop assay (Donegan, Matyac, Seidler, & Porteous, 1991). For human cell viability, pre-cultured human cancer HT-29 cells were dispensed in 98 μl in 96-well plates with approximately 5,000 cells/well. NPIMA was added (2 μl) to produce concentrations of 5, 10, 100, and 200 μM. For controls, Triton X-100 (positive control) and DMSO (negative solvent control), were used, and the medium was used for background. Plates were incubated in a humidified incubator (37° C., 5% CO2) for 24 hr. Cell viability was determined via a cell counting kit (CCK-8 Kit, ab228554; Abcam), and cytotoxicity was determined via the lactate dehydrogenase (LDH) assay (LDH Assay Kit, MK401; Takara).

[2] = system: E. coli BW25113 persister cells; experiment: Survival of persister cells (rifampicin/ampicillin generated); type: cell-based, Escherichia coli; conditions: 100 μM
Experimental: (§2) FIG. 3. NPIMA kills Escherichia coli, Pseudomonas aeruginosa, persister cells. Survival of (a) E. coli BW25113 and (b) P. aeruginosa PA14 after treatment with NPIMA (100 μM), 5-iodoindole (5-II, 100 μM), and DMSO for 6 hr. Asterisk indicates no viable cells detected. DMSO, dimethyl sulfoxide; NPIMA, 5-nitro-3-phenyl-1H-indol-2-yl-methylamine hydrochloride.
E. coli persister cells were prepared following our previous method (Kim, Yamasaki, et al., 2018; Kwan, Valenta, Benedik, & Wood, 2013). Exponentially-growing cells (turbidity of 0.8 at 600 nm) were treated with rifampicin (100 μg/ml for 30 min) to stop transcription, washed, and any remaining nonpersister cells were lysed by ampicillin in LB (100 μg/ml for 3 hr). Cells were harvested by centrifugation (17,000 g for 1 min) and washed with 1× phosphate-buffered saline buffer (PBS, 8 g NaCl, 0.2 g KCl, 1.15 g Na2HPO4, and 0.2 g KH2PO4 per 1,000 ml) twice to remove all possible carbon sources, then resuspended with 1×PBS. Natural E. coli persister cells were generated by treating stationary-phase cells (turbidity of 6 at 600 nm) with ampicillin (100 μg/ml) for 3 hr. P. aeruginosa PA14 persister cells were prepared by incubating to the stationary phase, diluting sixfold, and treating with carbonyl cyanide m-chlorophenylhydrazone (CCCP, 50 mg/ml stock solution in dimethly sulfoxide [DMSO]) to stop adenosine triphosphate (ATP) production (200 μg/ml for 3 hr), washed twice with 0.85% NaCl (5,000 g for 10 min), and any nonpersister cells were killed by ciprofloxacin (5 μg/ml) in LB for 3 hr. Following the antibiotic treatment, bacteria were washed twice with 0.85% NaCl (5,000 g for 10 min).
(§3) For bacterial viability, cells were washed twice with 0.85% NaCl, resuspended in 1×PBS, and cell counts were determined via the drop assay (Donegan, Matyac, Seidler, & Porteous, 1991). […] Cell viability was determined via a cell counting kit (CCK-8 Kit, ab228554; Abcam), and cytotoxicity was determined via the lactate dehydrogenase (LDH) assay (LDH Assay Kit, MK401; Takara).

[3] = system: P. aeruginosa PA14 persister cells; experiment: Survival of persister cells (CCCP/ciprofloxacin generated); type: cell-based, Pseudomonas aeruginosa; conditions: 100 μM
Experimental: as §2
E. coli persister cells were prepared following our previous method (Kim, Yamasaki, et al., 2018; Kwan, Valenta, Benedik, & Wood, 2013). Exponentially-growing cells (turbidity of 0.8 at 600 nm) were treated with rifampicin (100 μg/ml for 30 min) to stop transcription, washed, and any remaining nonpersister cells were lysed by ampicillin in LB (100 μg/ml for 3 hr). Cells were harvested by centrifugation (17,000 g for 1 min) and washed with 1× phosphate-buffered saline buffer (PBS, 8 g NaCl, 0.2 g KCl, 1.15 g Na2HPO4, and 0.2 g KH2PO4 per 1,000 ml) twice to remove all possible carbon sources, then resuspended with 1×PBS. […]
as §3

S. aureus [4] = experiment: Lysis assays (total protein and DNA in supernatants); type: cell-based, Staphylococcus aureus; conditions: 100 μM, 6 hr
Experimental: FIG. 5. NPIMA lyses Escherichia coli, Pseudomonas aeruginosa, and Staphylococcus aureus. Total protein (a) and DNA (b) found in supernatants as evidence of cell lysis after treatment of cells at a turbidity of 0.8 at 600 nm with 100 μM NPIMA after 1 hr for E. coli and P. aeruginosa and 6 hr for S. aureus. NPIMA, 5-nitro-3-phenyl-1H-indol-2-yl-methylamine hydrochloride.
Exponentially-growing E. coli BW25113 cells (turbidity 0.8 at 600 nm) were washed twice with 0.85% NaCl, resuspended in 1 ml of 1×PBS, and NPIMA (100 μM) was added for 1 hr for E. coli and P. aeruginosa and 6 hr for S. aureus with shaking at 250 rpm (0.1% DMSO was used as the negative control). Cell supernatants were collected after centrifuging at 6,500 g (4° C. for 15 min), and total protein was measured by the Bicinchoninic Acid (BCA) protein assay Kit (Prod #23227; Pierce). DNA in the supernatant (199 μl) was detected by adding 1 μl of Picogreen (P7589; Invitrogen) and incubating for 5 min at room temperature in the dark room. The fluorescence signal was read by a Tecan microplate reader (Infinite M200PRO) with 480 nm excitation and 520 nm emission by utilizing a calibration curved made with plasmid pEX18Ap at 0, 0.004, 0.008, 0.016, 0.063, 0.125, 0.25, and 0.5 ng/μl.

P. aeruginosa PA14 = experiment: LIVE/DEAD staining; type: cell-based, Pseudomonas aeruginosa; conditions: 100 μM, 1 hr
Experimental: (§4) FIG. 4. NPIMA lyses Escherichia coli, Pseudomonas aeruginosa, and Staphylococcus aureus. LIVE/DEAD staining of (a) E. coli BW25113 after 0.75 hr, (b) P. aeruginosa PA14 after 1 hr, and (c) S. aureus after 1 hr treatment with NPIMA at 100 μM. […] White arrows indicate lysed cells. Representative images are shown. Scale bar=[…]. NPIMA, 5-nitro-3-phenyl-1H-indol-2-ylmethylamine hydrochloride.
(§5) Cell viability after treating with NPIMA was determined using the using the LIVE/DEAD BacLight Bacterial Viability Kit (catalog number, L7012; Molecular Probes, Inc., Eugene, OR). The fluorescence signal was analyzed via a Zeiss Axioscope.A1 using excitation at 485 nm and emission at 530 nm for green fluorescence and using excitation at 485 nm and emission at 630 nm for red fluorescence.

S. aureus [5] = experiment: LIVE/DEAD staining; type: cell-based, Staphylococcus aureus; conditions: 100 μM, 1 hr
Experimental: as §4, §5

[6] = system: E. coli BW25113 exponential cells; experiment: Survival of exponentially-growing cells (drop assay); type: cell-based, Escherichia coli
Experimental: FIG. 2. NPIMA eradicates Escherichia coli, Pseudomonas aeruginosa, and Staphylococcus aureus exponential cells. Survival after 6 hr for (a) E. coli BW25113 with NPIMA and 5-iodoindole at 100 μM, (b) P. aeruginosa PA14 with NPIMA and 5-iodoindole at 100 μM, and (c) S. aureus with NPIMA and 5-iodoindole at 200 μM. Asterisk indicates no viable cells detected. NPIMA, 5-nitro-3-phenyl-1H-indol-2-yl-methylamine hydrochloride.
FIG. 8. NPIMA structure function relationships. Exponential cells of Escherichia coli BW25113 were treated with (a) 2-(aminomethyl) indole, and (b) 2-methyl-5-nitro-3-phenyl-1H-indole for 6 hr. NPIMA, 5-nitro-3-phenyl-1Hindol-2-yl-methylamine hydrochloride.
as §1

SMILES: Cl.NCc1[nH]c2ccc([N+](=O)[O-])cc2c1-c1ccccc1 [NPIMA, [(5-nitro-3-phenyl-1H-indol-2-yl)methyl]amine hydrochloride]
- effectiveness relative to cisplatin [1]: less effective than cisplatin
- time to eradicate E. coli persisters [2]: 6 h
- killing of E. coli persister cells ([2]; 6 hr): eradicated
- time to eradicate P. aeruginosa persister cells [3]: 3 h
- DNA released compared with DMSO alone (S. aureus [4]): 1.82±0.05 fold
- total protein released compared with DMSO alone (S. aureus [4]): 2.9±0.1 fold
- cell lysis seen by LIVE/DEAD staining (extracellular DNA) (P. aeruginosa PA14): lysed
- cells killed (LIVE/DEAD) (P. aeruginosa PA14): 100%
- cells killed (LIVE/DEAD) (S. aureus [5]): 27%
- time to eradicate exponentially-growing E. coli ([6]; 100 μM (1 MIC)): ≤ 3 h
- killing of exponential E. coli cells ([6]; 100 μM, 6 hr): eradicated
